Measurements reported in patent publication US12404279B2, “Deubiquitinase inhibitors and methods of use thereof” (Molecure S.A., priority 2021, dated 2025).
Counter-ions that a name gives are not always drawn. Like-named read-outs stand apart in the source and are kept apart here.

Molecular target: full-length USP7 (Homo sapiens (Human), UniProt Q93009)
Test: Enzymatic assay to determine IC50 of USP7 inhibitors (Ubiquitin-Rhodamine 110 cleavage)
Assay type: biochemical
Settings: for IC50: 0.5 nM USP7, 0.5 μM Ubiquitin-Rhodamine 110, 45 min at 37° C.; for inhibition at 1 µM: read-out: percent value of inhibition of USP7 activity
Description: For the inhibitors disclosed herein, their potency was measured using the following method.
A 45 μl reaction volume containing full-length USP7 (0.5 nM) in 50 mM HEPES pH 7.5, 150 mM NaCl, 1 mM DTT, 1 mg/ml BSA and 0.05% Tween20 was assembled in wells of 96 well half area black flat bottom plates. Test compounds were first dissolved to 25 mM stocks in DMSO and subsequently introduced to enzyme 15 min after USP7 incubation with DTT at room temperature. The enzymatic reaction was started by adding 0.5 μM Ubiquitin-Rhodamine 110 (final concentration) and allowed to proceed for 45 min at 37° C., 250 RPM shaking before Rhodamine fluorescence (485 nm excitation/520 nm emission) was measured using Tecan Spark M10 plate reader.

[1] = at 1 μM of the test compound, given where IC50 not determined yet

Sequence of full-length USP7 (Q93009 whole entry): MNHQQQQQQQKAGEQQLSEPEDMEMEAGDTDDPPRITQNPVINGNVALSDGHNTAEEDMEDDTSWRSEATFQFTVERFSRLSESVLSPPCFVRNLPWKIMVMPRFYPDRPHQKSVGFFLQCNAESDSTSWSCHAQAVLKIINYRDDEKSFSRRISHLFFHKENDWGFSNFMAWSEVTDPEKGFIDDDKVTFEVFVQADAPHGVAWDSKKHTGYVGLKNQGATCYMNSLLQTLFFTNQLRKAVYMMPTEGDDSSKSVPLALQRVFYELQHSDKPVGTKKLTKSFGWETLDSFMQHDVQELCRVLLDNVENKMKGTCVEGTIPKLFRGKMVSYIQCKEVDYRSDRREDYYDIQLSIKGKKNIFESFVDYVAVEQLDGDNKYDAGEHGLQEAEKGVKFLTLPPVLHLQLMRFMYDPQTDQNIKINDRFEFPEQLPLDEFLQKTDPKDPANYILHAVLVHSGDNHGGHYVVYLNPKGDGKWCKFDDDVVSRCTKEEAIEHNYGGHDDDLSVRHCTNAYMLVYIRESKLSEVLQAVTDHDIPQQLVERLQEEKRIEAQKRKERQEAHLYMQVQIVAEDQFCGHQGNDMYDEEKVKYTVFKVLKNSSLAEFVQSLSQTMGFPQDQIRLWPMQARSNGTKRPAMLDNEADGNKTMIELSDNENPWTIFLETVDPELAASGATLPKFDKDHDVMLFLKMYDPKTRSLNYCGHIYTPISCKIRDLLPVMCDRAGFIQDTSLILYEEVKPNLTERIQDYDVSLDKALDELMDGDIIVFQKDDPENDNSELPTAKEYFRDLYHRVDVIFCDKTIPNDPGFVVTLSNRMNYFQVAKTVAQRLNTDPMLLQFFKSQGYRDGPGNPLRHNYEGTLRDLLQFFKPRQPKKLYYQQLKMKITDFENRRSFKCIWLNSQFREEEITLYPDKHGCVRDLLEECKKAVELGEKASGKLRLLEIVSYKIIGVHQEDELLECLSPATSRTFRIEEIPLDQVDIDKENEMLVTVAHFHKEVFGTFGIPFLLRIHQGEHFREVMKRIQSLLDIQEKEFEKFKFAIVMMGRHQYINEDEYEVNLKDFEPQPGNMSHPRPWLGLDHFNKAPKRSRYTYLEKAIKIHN

Compound: 3-((7-(3-(3,3-difluoroazetidine-1-carbonyl)-4,6-dimethylpyridin-2-yl)thieno[3,2-b]pyridin-2-yl)methyl)-6,6-dimethyl-3-azabicyclo[3.1.0]hexane-2,4-dione hydrochloride [Example 85]
- IC50: 1000 to 10000 nM

Compound: Cc1cc(C(F)(F)F)nc(-c2ccnc3cc(CN4C(=O)C5C(C4=O)C5(C)C)sc23)c1C(=O)N1C[C@@H](N)C2(CC2)C1 (stereo partly drawn) [Example 173, 3-((7-(3-((S)-7-amino-5-azaspiro[2.4]heptane-5-carbonyl)-4-methyl-6-(trifluoromethyl)pyridin-2-yl)thieno[3,2-b]pyridin-2-yl)methyl)-6,6-dimethyl-3-azabicyclo[3.1.0]hexane-2,4-dione hydrochloride]
- IC50: < 500 nM

Compound: Cc1cc(C(F)(F)F)nc(-c2ccnc3cc(CN4C(=O)C5C(C4=O)C5(C)C)sc23)c1CN1CCNCC1=O (centres unmarked) [Example 40, 6,6-dimethyl-3-((7-(4-methyl-3-((2-oxopiperazin-1-yl)methyl)-6-(trifluoromethyl)pyridin-2-yl)thieno[3,2-b]pyridin-2-yl)methyl)-3-azabicyclo[3.1.0]hexane-2,4-dione dihydrochloride]
- inhibition at 1 µM [1]: 20 to 49%

Compound: Cc1cc(C(F)(F)F)nc(-c2ccnc3cc(CN4C(=O)C5C(C4=O)C5(C)C)sc23)c1C(=O)N1C[C@@H](N)[C@@H](C)C1 (stereo partly drawn) [Example 106, 3-((7-(3-((3S,4S)-3-amino-4-methylpyrrolidine-1-carbonyl)-4-methyl-6-(trifluoromethyl)pyridin-2-yl)thieno[3,2-b]pyridin-2-yl)methyl)-6,6-dimethyl-3-azabicyclo[3.1.0]hexane-2,4-dione hydrochloride]
- IC50: < 500 nM

Compound: Cc1cc(Cl)nc(-c2ccnc3cc(CN4C(=O)C5C(C4=O)C5(C)C)sc23)c1OC1CCCNC1 (racemic) [Example 3, 3-((7-(6-chloro-4-methyl-3-(piperidin-3-yloxy)pyridin-2-yl)thieno[3,2-b]pyridin-2-yl)methyl)-6,6-dimethyl-3-azabicyclo[3.1.0]hexane-2,4-dione hydrochloride]
- IC50: < 500 nM

Compound: Cc1cc(C#N)nc(-c2ccnc3cc(CN4C(=O)C5C(C4=O)C5(C)C)sc23)c1C(=O)N1CCOCC1 (centres unmarked) [Example 58, 6-(2-((6,6-dimethyl-2,4-dioxo-3-azabicyclo[3.1.0]hexan-3-yl)methyl)thieno[3,2-b]pyridin-7-yl)-4-methyl-5-(morpholine-4-carbonyl)picolinonitrile hydrochloride]
- IC50: 500 to 1000 nM

Compound: CN[C@H]1CCN(C(=O)c2c(C)cc(C(F)(F)F)nc2-c2ccnc3c(F)c(CN4C(=O)C5C(C4=O)C5(C)C)sc23)C1 (stereo partly drawn) [Example 174, 3-((3-fluoro-7-(4-methyl-3-((S)-3-(methylamino)pyrrolidine-1-carbonyl)-6-(trifluoromethyl)pyridin-2-yl)thieno[3,2-b]pyridin-2-yl)methyl)-6,6-dimethyl-3-azabicyclo[3.1.0]hexane-2,4-dione hydrochloride]
- inhibition at 1 µM [1]: 50 to 70%

Compound: Cc1nc(C#N)cc(-c2ccnc3cc(CN4C(=O)C5C(C4=O)C5(C)C)sc23)c1C(=O)N1CC[C@@H](O)C1 (stereo partly drawn) [Example 12, 4-(2-((6,6-dimethyl-2,4-dioxo-3-azabicyclo[3.1.0]hexan-3-yl)methyl)thieno[3,2-b]pyridin-7-yl)-5-((R)-3-hydroxypyrrolidine-1-carbonyl)-6-methylpicolinonitrile 2,2,2-trifluoroacetate]
- IC50: 500 to 1000 nM

Compound: Cc1nc2c(-c3cc(Cl)cc(C)c3O[C@H]3CCCNC3)ccnc2[nH]1 [Example 67, (S)-7-(5-chloro-3-methyl-2-(piperidin-3-yloxy)phenyl)-2-methyl-3H-imidazo[4,5-b]pyridine hydrochloride]
- inhibition at 1 µM [1]: < 20%

Compound: CC1(C)C2C(=O)N(Cc3cc4nccc(-c5cc(C(F)(F)F)n(CC6CNCCO6)n5)c4s3)C(=O)C21 (centres unmarked) [Example 6, 6,6-dimethyl-3-((7-(1-(morpholin-2-ylmethyl)-5-(trifluoromethyl)-1H-pyrazol-3-yl)thieno[3,2-b]pyridin-2-yl)methyl)-3-azabicyclo[3.1.0]hexane-2,4-dione 2,2,2-trifluoroacetate]
- inhibition at 1 µM: < 20%

Compound: Cc1cc(C#N)nc(-c2ccnc3cc(CN4C(=O)C5C(C4=O)C5(C)C)sc23)c1NC1CCNC1 (centres unmarked) [Example 20, 6-(2-((6,6-dimethyl-2,4-dioxo-3-azabicyclo[3.1.0]hexan-3-yl)methyl)thieno[3,2-b]pyridin-7-yl)-4-methyl-5-(pyrrolidin-3-ylamino)picolinonitrile dihydrochloride]
- IC50: < 500 nM

Compound: Cc1c([N+](=O)[O-])cc(-c2ccnc3cc(CN4C(=O)C5C(C4=O)C5(C)C)sc23)n1C[C@H]1CNCCO1 (stereo partly drawn) [Example 167, 6,6-dimethyl-3-((7-(5-methyl-1-(((R)-morpholin-2-yl)methyl)-4-nitro-1H-pyrrol-2-yl)thieno[3,2-b]pyridin-2-yl)methyl)-3-azabicyclo[3.1.0]hexane-2,4-dione hydrochloride]
- IC50: < 500 nM

Compound: Cc1cc(C(F)(F)F)nc(-c2ccnc3cc(CN4C(=O)C5C(C4=O)C5(C)C)sc23)c1C(=O)NC1CCNCC1 (centres unmarked) [Example 111, 2-(2-((6,6-dimethyl-2,4-dioxo-3-azabicyclo[3.1.0]hexan-3-yl)methyl)thieno[3,2-b]pyridin-7-yl)-4-methyl-N-(piperidin-4-yl)-6-(trifluoromethyl)nicotinamide dihydrochloride]
- inhibition at 1 µM [1]: < 20%

Compound: Cc1cc(C(F)(F)F)nc(-c2ccnc3cc(CN4C(=O)C5C(C4=O)C5(C)C)sc23)c1C(=O)N[C@H]1CCNC1 (stereo partly drawn) [Example 75, 2-(2-((6,6-dimethyl-2,4-dioxo-3-azabicyclo[3.1.0]hexan-3-yl)methyl)thieno[3,2-b]pyridin-7-yl)-4-methyl-N—((S)-pyrrolidin-3-yl)-6-(trifluoromethyl)nicotinamide dihydrochloride]
- IC50: 1000 to 10000 nM

Compound: 6,6-dimethyl-3-((7-(2-methyl-3-(pyrrolidin-3-ylmethyl)-6-(trifluoromethyl)pyridin-4-yl)thieno[3,2-b]pyridin-2-yl)methyl)-3-azabicyclo[3.1.0]hexane-2,4-dione 2,2,2-trifluoroacetate [Example 88]
- IC50: < 500 nM

Compound: Cc1nc(C#N)cc(-c2ccnc3cc(CN4C(=O)C5C(C4=O)C5(C)C)sc23)c1C(=O)N1CC[C@@H](N)C1 (stereo partly drawn) [Example 8, 5-((R)-3-aminopyrrolidine-1-carbonyl)-4-(2-((6,6-dimethyl-2,4-dioxo-3-azabicyclo[3.1.0]hexan-3-yl)methyl)thieno[3,2-b]pyridin-7-yl)-6-methylpicolinonitrile 2,2,2-trifluoroacetate]
- IC50: 500 to 1000 nM

Compound: CC1(C)C2C(=O)N(Cc3cc4nccc(-c5nc(C(F)(F)F)cn5C[C@@H]5CNCCO5)c4s3)C(=O)C21 (stereo partly drawn) [Example 149, 6,6-dimethyl-3-((7-(1-(((S)-morpholin-2-yl)methyl)-4-(trifluoromethyl)-1H-imidazol-2-yl)thieno[3,2-b]pyridin-2-yl)methyl)-3-azabicyclo[3.1.0]hexane-2,4-dione 2,2,2-trifluoroacetate]
- inhibition at 1 µM: < 20%

Compound: Cc1cc(C(F)(F)F)nc(-c2ccnc3cc(CN4C(=O)C5C(C4=O)C5(C)C)sc23)c1C(=O)N1CCC(N)CC1 (centres unmarked) [Example 112, 3-((7-(3-(4-aminopiperidine-1-carbonyl)-4-methyl-6-(trifluoromethyl)pyridin-2-yl)thieno[3,2-b]pyridin-2-yl)methyl)-6,6-dimethyl-3-azabicyclo[3.1.0]hexane-2,4-dione dihydrochloride]
- IC50: < 500 nM

Compound: Cc1nc(C#N)cc(-c2ccnc3cc(CN4C(=O)C5C(C4=O)C5(C)C)sc23)c1C(=O)N1CC(F)(F)C1 (centres unmarked) [Example 19, 5-(3,3-difluoroazetidine-1-carbonyl)-4-(2-((6,6-dimethyl-2,4-dioxo-3-azabicyclo[3.1.0]hexan-3-yl)methyl)thieno[3,2-b]pyridin-7-yl)-6-methylpicolinonitrile 2,2,2-trifluoroacetate]
- IC50: 500 to 1000 nM

Compound: Cc1cc(Cl)cc(-c2ccnc3nc(C)n(C)c23)c1O[C@H]1CCCNC1 [Example 69, (S)-7-(5-chloro-3-methyl-2-(piperidin-3-yloxy)phenyl)-1,2-dimethyl-1H-imidazo[4,5-b]pyridine hydrochloride]
- inhibition at 1 µM [1]: < 20%

Compound: Cc1cc(C#N)nc(-c2ccnc3cc(CN4C(=O)C5C(C4=O)C5(C)C)sc23)c1C(=O)N1CCNCC1 (centres unmarked) [Example 55, 6-(2-((6,6-dimethyl-2,4-dioxo-3-azabicyclo[3.1.0]hexan-3-yl)methyl)thieno[3,2-b]pyridin-7-yl)-4-methyl-5-(piperazine-1-carbonyl)picolinonitrile hydrochloride]
- IC50: < 500 nM

Compound: Cc1cc(C(F)(F)F)nc(-c2ccnc3cc(CN4C(=O)C5C(C4=O)C5(C)C)sc23)c1C(=O)N1CC[C@H](C(F)F)C1 (stereo partly drawn) [Example 104, 3-((7-(3-((S)-3-(difluoromethyl)pyrrolidine-1-carbonyl)-4-methyl-6-(trifluoromethyl)pyridin-2-yl)thieno[3,2-b]pyridin-2-yl)methyl)-6,6-dimethyl-3-azabicyclo[3.1.0]hexane-2,4-dione hydrochloride]
- IC50: < 500 nM

Compound: Cc1cc(C(F)(F)F)nc(-c2ccnc3cc(CN4C(=O)C5C(C4=O)C5(C)C)sc23)c1C(=O)N1CC[C@H](NC(=O)[C@H](C)N)C1 (stereo partly drawn) [Example 110, (2S)-2-amino-N-((3S)-1-(2-(2-((6,6-dimethyl-2,4-dioxo-3-azabicyclo[3.1.0]hexan-3-yl)methyl)thieno[3,2-b]pyridin-7-yl)-4-methyl-6-(trifluoromethyl)nicotinoyl)pyrrolidin-3-yl)propanamide dihydrochloride]
- IC50: 500 to 1000 nM
